According to article PMC12064818, “A general assay platform to study protein pharmacology using ligand-dependent structural dynamics” (Nature Communications, 2025):
Read-outs that look alike come from different tables or passages of the source.

Key:
[1] = target: FLuc-C-HiBiT (firefly luciferase) (Photinus pyralis, UniProt P08659, form not given/L550V); experiment: SDR assay, FLuc-C-HiBiT; details: SDR max. response, clade S
[2] = target: FLuc-C-NLuc (firefly luciferase) (Photinus pyralis, UniProt P08659, form not given/L550V); experiment: SDR assay, FLuc-C-NLuc; details: - ATP
NLuc = target: T1, NLuc (Oplophorus gracilirostris, UniProt Q9GV45, A31E/A60N/A81I/F95D/I117V/K70R/L54V/L99Q/M102K/N193R/P142E/Q151K/Q38R/Q45L/V71I/Y165I); assay type: biochemical; details: - ATP
T1 construct: His tag (inferred from IMAC purification); made in house; host or cells: E. coli
Method in brief: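 Test compounds added to 1 nM NLuc in PBS with 0.05% IGEPAL, ± ATP. Nano-Glo reagent added and incubated 10 min before luminescence read.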

P. pyralis FLuc = P. pyralis FLuc (Photinus pyralis, UniProt P08659); experiment: FLuc enzymatic luminescence assay, P. pyralis FLuc; assay type: biochemical; details: FLuc enzymatic assay; for IC50: read-out: IC50 or SDR50 (mM) FLuc E
Method in brief: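 Runs with and without 10 µM ATP: compounds were pre-incubated with FLuc (1–10 nM, PBS pH 7.4) at ambient temperature, light-protected, for 30–60 min. Luminescence was imaged 5 min after adding 10 µM D-luciferin (final). Inhibition was scaled between DMSO neutral and no-enzyme controls.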

Chain of FLuc-C-HiBiT (firefly luciferase) (P08659 2-550 L550V, form open): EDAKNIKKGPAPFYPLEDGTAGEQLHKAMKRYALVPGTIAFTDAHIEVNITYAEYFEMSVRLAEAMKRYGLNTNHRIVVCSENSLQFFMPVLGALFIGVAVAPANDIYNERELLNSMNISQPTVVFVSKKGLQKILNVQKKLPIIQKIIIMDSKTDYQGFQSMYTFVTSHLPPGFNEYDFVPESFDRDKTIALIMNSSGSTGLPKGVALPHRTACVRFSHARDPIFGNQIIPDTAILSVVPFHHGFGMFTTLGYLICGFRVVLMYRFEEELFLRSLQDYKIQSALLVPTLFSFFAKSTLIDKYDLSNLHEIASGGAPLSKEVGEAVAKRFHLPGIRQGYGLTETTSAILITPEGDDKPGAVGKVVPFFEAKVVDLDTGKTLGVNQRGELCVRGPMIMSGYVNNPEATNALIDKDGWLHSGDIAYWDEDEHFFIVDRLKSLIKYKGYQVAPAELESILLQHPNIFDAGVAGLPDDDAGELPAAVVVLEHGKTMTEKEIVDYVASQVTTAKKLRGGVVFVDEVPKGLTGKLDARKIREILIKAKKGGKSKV
Chain of FLuc-C-NLuc (firefly luciferase) (P08659 2-550 L550V, form open): as above
Chain of P. pyralis FLuc (P08659 whole entry): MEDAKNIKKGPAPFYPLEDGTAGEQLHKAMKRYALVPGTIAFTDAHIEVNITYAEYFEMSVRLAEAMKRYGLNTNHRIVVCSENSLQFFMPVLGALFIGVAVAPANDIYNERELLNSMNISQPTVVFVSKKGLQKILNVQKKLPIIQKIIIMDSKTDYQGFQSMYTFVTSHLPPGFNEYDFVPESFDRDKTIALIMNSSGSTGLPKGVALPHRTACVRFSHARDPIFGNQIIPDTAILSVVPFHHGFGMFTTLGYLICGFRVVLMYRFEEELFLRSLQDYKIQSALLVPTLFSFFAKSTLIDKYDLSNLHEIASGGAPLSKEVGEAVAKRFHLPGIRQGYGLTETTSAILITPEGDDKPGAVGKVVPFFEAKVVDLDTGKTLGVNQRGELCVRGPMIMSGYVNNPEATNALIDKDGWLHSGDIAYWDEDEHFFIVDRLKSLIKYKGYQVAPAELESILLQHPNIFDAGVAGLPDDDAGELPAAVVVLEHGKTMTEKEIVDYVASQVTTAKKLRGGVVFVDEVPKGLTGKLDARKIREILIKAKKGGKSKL
T1 sequence (Q9GV45 other isoform, or with tags, fused parts or gaps with the stated changes): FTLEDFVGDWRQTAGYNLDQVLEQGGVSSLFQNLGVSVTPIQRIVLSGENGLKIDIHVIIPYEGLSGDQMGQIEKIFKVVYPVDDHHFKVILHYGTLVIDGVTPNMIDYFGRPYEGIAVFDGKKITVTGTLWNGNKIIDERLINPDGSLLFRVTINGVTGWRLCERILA

| Structure (SMILES) | % Activity (max response, + ATP) [1] [%] | % Activity (max response, - ATP) [1] [%] | Efficacy (%) FLuc-C-NLuc SDR (-ATP) [2] [%] | Efficacy (%) NLuc (- ATP) (NLuc) [%] | pIC50 or pSDR50 FLuc E (P. pyralis FLuc) | Efficacy (%) FLuc E (P. pyralis FLuc; Clade S follow-up) [%] | IC50 (P. pyralis FLuc) [mM] | pIC50 or pSDR50 FLuc E (P. pyralis FLuc; Clade S follow-up) | IC50 (P. pyralis FLuc; Clade S follow-up) [mM] |
| --- | --- | --- | --- | --- | --- | --- | --- | --- | --- |
| O=C(NC1CCCCCCC1)C1CCN(C(=O)c2ncn3c2COC(c2ccc(F)cc2)C3)CC1 (centres unmarked) [NCGC00449810-01] | 34.91 | 0.00 | 0.00 | 0.00 | 4.81 | -21.88 | 0.0157 |  |  |
| CC1CCC(NC(=O)C2CCN(C(=O)c3ncn4c3COC(c3ccc(F)cc3)C4)CC2)CC1 (centres unmarked) [NCGC00449808-01] | 39.00 | 0.00 | 0.00 | 0.00 |  | -26.58 |  |  |  |
| O=C(NCCc1ccccc1)C1CCN(C(=O)c2ncn3c2COC(c2ccc(F)cc2)C3)CC1 (centres unmarked) [NCGC00449826-01] | 27.00 | 0.00 | 0.00 | 0.00 |  | -26.42 |  |  |  |
| O=C(NCc1ccc(F)cc1)C1CCN(C(=O)c2ncn3c2COC(c2ccccc2)C3)CC1 (centres unmarked) [NCGC00449784-01] | 341.35 | 0.00 | 0.00 | 0.00 | 5.26 | -93.60 | 0.00555 |  |  |
| O=C(NCc1ccc(Cl)cc1)C1CCN(C(=O)c2ncn3c2COC(c2ccccc2)C3)CC1 (centres unmarked) [NCGC00449788-01] | 324.91 | 0.00 | 0.00 | 0.00 | 5.41 | -95.09 | 0.00393 |  |  |
| COc1ccc(C2Cn3cnc(C(=O)N4CCC(C(=O)NCC(C)C)CC4)c3CO2)cc1 (centres unmarked) [NCGC00449858-01] | 14.32 | 0.00 | 0.00 | 0.00 |  | -13.26 |  |  |  |
| COc1cccc(CNC(=O)C2CCN(C(=O)c3ncn4c3COC(c3ccc(C)cc3)C4)CC2)c1 (centres unmarked) [NCGC00449886-01] | 57.89 | 0.00 | 0.00 | -7.20 |  | -31.42 |  | 4.91 | 0.0124 |
| CC1CCC(NC(=O)C2CCN(C(=O)c3ncn4c3COC(c3ccc(Cl)cc3)C4)CC2)CC1 (centres unmarked) [NCGC00449845-01] | 0.00 | 0.00 | 0.00 | 0.00 |  | 0.00 |  |  |  |
| O=C(NCCCc1ccccc1)C1CCN(C(=O)c2ncn3c2COC(c2ccccc2)C3)CC1 (centres unmarked) [NCGC00449797-01] | 265.99 | 0.00 | 0.00 | 0.00 | 5.36 | -79.71 | 0.00441 |  |  |
| CCCCNC(=O)C1CCN(C(=O)c2ncn3c2COC(c2ccc(OC)cc2)C3)CC1 (centres unmarked) [NCGC00449864-01] | 0.00 | 0.00 | 0.00 | 0.00 |  | -10.96 |  |  |  |
| COc1ccc(C2Cn3cnc(C(=O)N4CCC(C(=O)NC5CCC(C)CC5)CC4)c3CO2)cc1 (centres unmarked) [NCGC00449861-01] | 14.50 | 0.00 | 0.00 | 0.00 |  | 0.00 |  |  |  |
| COc1ccc(C2Cn3cnc(C(=O)N4CCC(C(=O)NCCc5ccccc5)CC4)c3CO2)cc1 (centres unmarked) [NCGC00449871-01] | 0.00 | 0.00 | 0.00 | 0.00 |  | 0.00 |  |  |  |
| O=C(NCc1ccccc1)C1CCN(C(=O)c2ncn3c2COC(c2ccc(F)cc2)C3)CC1 (centres unmarked) [NCGC00449813-01] | 33.80 | 0.00 | 0.00 | 0.00 | 4.91 | -31.52 | 0.0124 |  |  |
| COc1ccc(CNC(=O)C2CCN(C(=O)c3ncn4c3COC(c3ccc(C)cc3)C4)CC2)cc1 (centres unmarked) [NCGC00449887-01] | 80.81 | 0.00 | 0.00 | 0.00 |  | -38.46 |  | 4.96 | 0.0111 |
| Cc1ccc(C2Cn3cnc(C(=O)N4CCC(C(=O)NCCC5=CCCCC5)CC4)c3CO2)cc1 (centres unmarked) [NCGC00449883-01] | 75.13 | 0.00 | 0.00 | 0.00 |  | -54.72 |  | 5.01 | 0.00988 |
| COc1ccc(C2Cn3cnc(C(=O)N4CCC(C(=O)NC5CCCC5)CC4)c3CO2)cc1 (centres unmarked) [NCGC00449859-01] | 0.00 | 0.00 | 0.00 | 0.00 |  | 0.00 |  |  |  |
| Cc1ccc(C2Cn3cnc(C(=O)N4CCC(C(=O)NCc5ccc(F)cc5F)CC4)c3CO2)cc1 (centres unmarked) [NCGC00449890-01] | 88.58 | 0.00 | 0.00 | 0.00 |  | -41.53 |  | 5.01 | 0.00988 |
| Cc1ccc(C2Cn3cnc(C(=O)N4CCC(C(=O)NC5CCCCC5)CC4)c3CO2)cc1 (centres unmarked) [NCGC00449882-01] | 52.31 | 0.00 | 0.00 | 0.00 |  | -33.56 |  | 4.91 | 0.0124 |
| Cc1ccc(C2Cn3cnc(C(=O)N4CCC(C(=O)NC(C)c5ccccc5)CC4)c3CO2)cc1 (centres unmarked) [NCGC00449895-01] | 100.93 | 0.00 | 0.00 | -8.50 |  | -61.76 |  | 4.96 | 0.0111 |
| O=C(NCc1ccc(F)cc1)C1CCN(C(=O)c2ncn3c2COC(c2ccc(Cl)cc2)C3)CC1 (centres unmarked) [NCGC00449852-01] | 32.50 | 0.00 | 0.00 | 0.00 |  | -25.63 |  | 4.86 | 0.0139 |
| Cc1ccc(C2Cn3cnc(C(=O)N4CCC(C(=O)NCc5ccccc5C)CC4)c3CO2)cc1 (centres unmarked) [NCGC00449898-01] | 110.64 | 0.00 | 0.00 | 0.00 |  | -44.97 |  | 4.96 | 0.0111 |
| O=C(NC1CCCCCC1)C1CCN(C(=O)c2ncn3c2COC(c2ccc(Cl)cc2)C3)CC1 (centres unmarked) [NCGC00449846-01] | 13.50 | 0.00 | 0.00 | 0.00 |  | -16.55 |  |  |  |
| O=C(NC1CC1)C1CCN(C(=O)c2ncn3c2COC(c2ccc(Cl)cc2)C3)CC1 (centres unmarked) [NCGC00449842-01] | 18.50 | 0.00 | 0.00 | 0.00 |  | -28.68 |  |  |  |
| COc1ccc(C2Cn3cnc(C(=O)N4CCC(C(=O)NCc5ccccc5)CC4)c3CO2)cc1 (centres unmarked) [NCGC00449865-01] | 0.00 | 0.00 | 0.00 | 0.00 |  | 0.00 |  |  |  |
| Cc1ccc(CNC(=O)C2CCN(C(=O)c3ncn4c3COC(c3ccc(Cl)cc3)C4)CC2)cc1 (centres unmarked) [NCGC00449850-01] | 22.50 | 0.00 | 0.00 | 0.00 |  | -21.67 |  |  |  |
| O=C(NCc1ccccc1Cl)C1CCN(C(=O)c2ncn3c2COC(c2ccccc2)C3)CC1 (centres unmarked) [NCGC00449786-01] | 336.94 | 0.00 | 0.00 | 15.00 | 5.01 | -73.36 | 0.00988 |  |  |
